Two compounds from patent publication US20070015813A1, “Treatment of protein folding disorders” (QUEEN'S UNIVERSITY AT KINGSTON, priority 2005, published 2007) can be followed below.

What all share (format): biochemical
The target of assay [1] is T1, Aβ1-40 (Homo sapiens, UniProt P05067).
T1 construct: Aβ^1-40 (AnaSpec, San Jose, Calif., lots 14212, 34862 and 34889); purchased AnaSpec, San Jose, Calif
Nature of the assay: “Seeded” Thioflavin T aggregation assay for Aβ1-40. The note with it: HFIP pretreatment omitted. An excerpt: The same procedure as described in Thioflavin T Aggregation Assay was used for “seeded” ThT aggregarion assay for Aβ^1-40 but the HFIP pretreatment was omitted. The presence of small Aβ^1-40 aggregates in the untreated batches caused aggregation to begin immediately rather than after a 12-24 hr. lag period.

Assay [2] deals with T1, Aβ1-40. Nature of the assay: Aβ1-40 disaggregation assay. The note with it: compound added after incubating at 37° C. for 46 hrs., ThT fluorescence. The procedure:
Aβ^1-40 was allowed to aggregate under conditions described in Thioflavin T Aggregation Assay except that no DMSO was added initially. After 46 hrs., compound in DMSO or vehicle was added (2 μL) and the fluorescence measured every 15 min. as detailed above. […] FIG. 3 depicts dose-response curves for inhibition of Aβ^1-40 aggregation by 0j and positive control, morin. FIG. 4 depicts the inhibition of Aβ^1-40 aggregation by 0c in “seeded” ThT assay. FIG. 5 depicts disaggregation of Aβ^1-40 by 0c and positive control, morin. After incubating at 37° C. for 46 hrs. 0c, morin or vehicle were added as DMSO solutions (1:100) and the fluorescence measured every 15 min.

A further assay addresses T2, Aβ1-42 (Homo sapiens, UniProt P05067).
T2 construct: Aβ^1-42 (AnaSpec, lot 45685); purchased AnaSpec
Nature of the assay: Kinetic Thioflavin T (ThT) aggregation assay of Aβ1-42. The note with it: 20 μM Aβ1-42, kinetic ThT assay. The procedure: Aβ^1-42 (1.0 mg) was either pretreated with HFIP in the same manner as Aβ^1-40 or this step was omitted. After removing HFIP, when appropriate, Aβ^1-42 was dissolved in 1% NH3 (aq.) (200 μL) and sonicated for 1 min. The solution was diluted with Tris-HCl (5.7 mL, 20 mM, pH 7.4), the pH adjusted to 7.4 with concentrated HCl (aq.) and the solution filtered using a syringe filter (0.2 μm). Prior to use in the ThT aggregation assay, the solution was diluted with an equal volume of 8 μM Thioflavin T (ThT) in Tris-HCl (20 mM, pH 7.4, 300 mM NaCl).
(§1) Aliquots (200 μL) of Aβ^1-40, Aβ^1-42, tau441 or α-synuclein with ThT or ThS were added to wells of a black polystyrene 96-well plate, followed by 2 μL of a compound in DMSO (various concentrations), or DMSO alone (controls). For α-synuclein, sodium dodecyl sulfate solution (2.0 μL, 30 mM) was also added to each well to induce aggregation. Incubations were performed in triplicate and were taken to contain 20 μM Aβ^1-40 or Aβ^1-42, 6 μM tau441 or 4 μM α-synuclein. Plates were covered with clear polystyrene lids and incubated at 37° C. in a GENios microplate reader obtained from Tecan Group Limited, Mannedorf, Zurich. For Aβ^1-40, tau441 and α-synuclein, fluorescence readings (λex=450 nm, λem=480 nm) were taken every 15 min., after first shaking at high intensity for 15 sec. and allowing to settle for 10 sec. before each reading. For Aβ^1-42, readings were taken every 5 min.
The absorbance of each compound was measured under the conditions used during testing, though on ten times the scale (2 mL), to ensure no significant quenching interfered with the assay. This step was also used to identify whether compounds were completely soluble under testing conditions.
FIG. 7 depicts inhibition of Aβ^1-42 aggregation by various synthesized bi-aromatic compounds and positive controls morin (Ono K, Yoshiike Y, Takashima A, Hasegawa K, Naiki H, Yamada M. 2003. J Neurochem 87:172-81) and RS-0406 (Walsh D M, Townsend M, Podlisny M B, Shankar G M, Fadeeva J V, Agnaf O E, Hartley D M, Selkoe D J. 2005. J Neurosci 25:2455-62) in the kinetic ThT assay. Same conditions as for Aβ^1-40, FIG. 1. Compound concentrations were 100 μM in (A), 20 μM in (B), except for RS-0406, which was tested at 100 μM, and 20 μM in (C).

A further assay deals with T3, α-synuclein (Homo sapiens, UniProt P37840).
T3 construct: purchased rPeptide, Bogart, GA
Nature of the assay: α-Synuclein aggregation ThT fluorescence assay. The note with it: α-Synuclein (6 μM), 10 μM ThT, pH 7.4, 37° C., compound 100 μM or as indicated. How it is done:
α-Synuclein (1.0 mg) was dissolved directly in Tris-HCl (11.53 mL, 20 mM, pH 7.4, 100 mM NaCl) containing DTT (5 mM) and ThT (10 μM).
as §1, with “Incubations were performed in triplicate and were taken to contain 20 μM Aβ^1-40 or Aβ^1-42, 6 μM tau441 or 4 μM α-synuclein.” left out
FIG. 12 depicts inhibition of α-synuclein aggregation by synthesized bi-aromatics and positive control morin (K, Yamada M. 2006. J Neurochem 97:105-15). Aggregation conditions: α-Synuclein (6 μM) was incubated in covered black 96-well polystyrene microplates in Tris-HCl (20 mM, pH 7.4), 10 μM ThT, 1% DMSO with compound concentrations of 100 μM (A) or as indicated (B). Plates were heated at 37° C. in a Tecan Genios microplate reader. […] Fluorescence readings: fluorescence was measured every 15 min. […]

T1 sequence (P05067 672-711 limits assumed): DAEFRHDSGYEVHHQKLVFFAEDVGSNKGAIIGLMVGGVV
T2 sequence (P05067 672-713 limits assumed): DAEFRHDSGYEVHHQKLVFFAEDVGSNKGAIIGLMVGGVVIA

With `O=C(O)c1ccc2[nH]cc(-c3c[nH]c4ccc(Br)cc34)c2c1` [0c, 3-(5-bromo-indol-3-yl)-indole-5-carboxylic Acid], the “inhibition of Aβ1-40 aggregation in “seeded” ThT assay” value at Aβ1-40 [1] is “inhibition”. Moreover, on Aβ1-40 [2], the “disaggregation of Aβ1-40” value was “disaggregation”.

For the compound `O=c1c(O)c(-c2ccc(O)cc2O)oc2cc(O)cc(O)c12` [morin], the “disaggregation of Aβ1-40” value at Aβ1-40 [2] is “disaggregation”. Also, the “inhibition of Aβ1-42 aggregation, as measured by ThT fluorescence” value against Aβ1-42 is on record as “inhibition”. Moreover, the “inhibition of α-synuclein aggregation (ThT fluorescence)” value against α-synuclein is on record as “inhibition”.
